Test results published in PMC10301432, “Antiplasmodial, Trypanocidal, and Genotoxicity In Vitro Assessment of New Hybrid α,α-Difluorophenylacetamide-statin Derivatives” (Pharmaceuticals, 2023).
Counter-ions that a name gives are not always drawn. Like-named read-outs stand apart in the source and are kept apart here.

Experiments:
[1] = system: P. falciparum parasites (W2 clone) chloroquine-resistant; experiment: Antiplasmodial activity, anti-HRPII assay; type: cell-based, Plasmodium falciparum; conditions: for EC50: Plasmodium falciparum, W2, 24 h; for SI: LC50 (HepG2)/EC50 (P. falciparum); for Antiplasmodial Activity: summarized outcome
Description: P. falciparum W2 clone was maintained in continuous culture as previously described. […] Prior to testing, the ring-stage parasites were synchronized using sorbitol.
The test quantification was read at 450 nm on a spectrophotometer (SpectraMax340PC384, Molecular Devices Sunnyvale, CA, USA), and the drug activity was expressed as the half-maximal inhibitory concentration (EC50) compared to the drug-free controls using the curve-fitting software Origin 8.0 (OriginLab Corporation, Northampton, MA, USA).

[2] = system: trypomastigote forms of T. cruzi (Y strain); experiment: Trypanocidal activity on bloodstream trypomastigotes; type: cell-based, Trypanosoma cruzi; conditions: for EC50: Trypanosoma cruzi, bloodstream trypomastigotes, Y strain, 24 h at 37 °C
Protocol: (§1) Bloodstream trypomastigote forms (BT) of the Y strain were obtained from infected albino Swiss mice at the peak of parasitemia, isolated by differential centrifugation and resuspended in DMEM to a parasite concentration of 10^7 cells/mL in the presence of 10% of mouse blood. This suspension (100 µL) was added in the same volume of 13 (a–d) and 14 (a–d) previously prepared at twice the desired final concentrations.

[3] = system: intracellular forms of T. cruzi (Tulahuen strain transfected with β-galactosidase); experiment: Activity against intracellular T. cruzi in L929 cells; type: cell-based, Trypanosoma cruzi; conditions: for EC50: Trypanosoma cruzi, L929, intracellular forms, Tulahuen strain, read-out: EC50; for EC50 / 10µM (% of Parasite Lysis): 96 h; for 10µM (% of Parasite Lysis): fixed concentration 10 µM
Protocol: Tissue culture-derived trypomastigotes (Tulahuen strain expressing the E. coli β-galactosidase gene) were maintained in L929 cell lines and collected from the supernatant after 96 h of parasite infection, following previously established protocols. Briefly, after 24 h of L929 platting (4 × 10^3 cells/well), the cultures were incubated with trypomastigotes (10:1 parasite/host cell ratio) for 2 h at 37 °C. Then, the cell cultures were rinsed to remove non-internalized parasites and then further incubated for 24 h at 37 °C. Then the infected cultures were followed using two sequential protocols. […] After this period, 50 µL chlorophenol red glycoside (500 µM) in 0.5% Nonidet P40 was added to each well and the plate was incubated for more than 18 h at 37 °C, after which the absorbance was measured at 570 nm. […] Controls with untreated and Bz-treated cells are run in parallel. The results were expressed as the percent difference in the reduction between treated and untreated cells.

HepG2 cells = experiment: In vitro micronuclei assay, HepG2; type: cell-based, human; conditions: human, 3 h
Protocol: Fresh HepG2 and CHO-K1 cells were seeded at the density of 1 × 10^5 cells/mL into 24-well plates (1 mL/per well). The compounds 13 (a–d) were then added to the medium to final concentrations of 500, 1000 and 2000 µM and incubation continued for 3 h or 24 h. DMSO 10% was used as the negative control, and, BaP (80 µM) for HepG2 and MMC (5 µM) for CHO-K1 were the positive controls. After exposure to the compounds, the cells were incubated for more than 24 h under growth conditions before quantification of the micronuclei and cytotoxicity. The cytogenetic studies were carried out in triplicate as described previously (see [51]). In order to determine the mitotic index and the number of cells with micronuclei, the medium was replaced by a cold methanol-glacial acetic acid (3:1) fixative for 30 min, and the cells then rinsed with distilled water for 2 min and air dried. The fixed cells were stained with 4,6-diamidino-2-phenylindole (DAPI) ([…]) dissolved in McIlvaine buffer (0.1 M citric acid plus 0.2 M Na2HPO4, pH 7.0) for 60 min, washed with McIlvaine buffer for 5 min, briefly rinsed with distilled water and mounted in glycerol. To determine the mitotic index and the number of cells with micronuclei, 1000 cells per well (3000 cells per concentration) were analyzed under a fluorescence microscope. The results for micronuclei were presented as the percentage of cells containing micronuclei in the 3000 cells/concentration group analyzed. Cells that glowed brightly and had homogenous nuclei were considered as having normal phenotypic morphology. Apoptotic nuclei were identified by the condensed chromatin at the periphery of the nuclear membrane or by fragmented nuclear body morphology. Necrotic cells presented chromatin forms with irregularly shaped aggregates, a pyknotic nucleus (shrunken and darkly stained) and cell membrane disruption, with cellular debris spilled into the extracellular milieu. Once again, 3000 cells were counted and the percentage of viable cells was evaluated, discounting apoptotic and necrotic cells. Statistical differences between the groups were analyzed by two-way ANOVA (p < 0.01) and Tukey’s post hoc test.

in vitro [4] = type: cell-based; conditions: human
Protocol: Human hepatocellular carcinoma (HepG2) and Chinese Hamster Ovary (CHO-K1) cells obtained from the American Type Culture Collection (Manassas, VA, USA) were cultured in Eagle’s medium (MEM, Gibco®, Waltham, MA, USA) containing 10% fetal bovine serum (FBS) plus 100 µg/mL streptomycin and 100 µg/mL penicillin at 37 °C in a 5% CO2 atmosphere. Logarithmic-phase cells were used in all the experiments.
Fresh HepG2 and CHO-K1 cells were seeded at a density of 1 × 10^4/well. […] Briefly, after treatment, the culture medium was replaced by 90 μL fresh culture medium and 10 μL WST-1 reagent and incubated at 37 °C and 5% CO2 for 3 h. The absorbance was then measured at 440 nm according to the kit protocol.

in vitro [5] = type: cell-based; conditions: mouse
Protocol: Primary cultures of cardiac cells (CC) were obtained as reported in [50]. The cultures were sustained in Dulbecco’s modified Eagle’s medium (DMEM) supplemented with 10% horse serum, 5% fetal bovine serum (FBS), 2.5 mM CaCl2, 1 mM L-glutamine, and 2% chicken embryo extract. Cell cultures were maintained at 37 °C in an atmosphere of 5% CO2, and assays were run at least three times in triplicate.
(§2) Cardiac cell cultures were incubated for 24 h at 37 °C with different concentrations of the compounds (up to 200 µM) diluted in DMEM (without phenol red). Their morphology and spontaneous contractibility were evaluated by light microscopy and then the cellular viability was determined by the PrestoBlue® assay. For this colorimetric bioassay, PrestoBlue® (Invitrogen, Waltham, MA, USA) was added to each well (using a 10:1 medium/dye), the plate was further incubated for 24 h followed by optical density (OD) measurement performed at 570 and 600 nm, as recommended by the manufacturer.

T. cruzi = experiment: Trypanocidal in vitro phenotypic screening, overall outcome; type: cell-based, Trypanosoma cruzi; conditions: summarized outcome
Protocol: as §1
Tissue culture-derived trypomastigotes (Tulahuen strain expressing the E. coli β-galactosidase gene) were maintained in L929 cell lines and collected from the supernatant after 96 h of parasite infection, following previously established protocols. Briefly, after 24 h of L929 platting (4 × 10^3 cells/well), the cultures were incubated with trypomastigotes (10:1 parasite/host cell ratio) for 2 h at 37 °C. Then, the cell cultures were rinsed to remove non-internalized parasites and then further incubated for 24 h at 37 °C. Then the infected cultures were followed using two sequential protocols. […] After this period, 50 µL chlorophenol red glycoside (500 µM) in 0.5% Nonidet P40 was added to each well and the plate was incubated for more than 18 h at 37 °C, after which the absorbance was measured at 570 nm. Then, the compounds were next evaluated using dose–response assays in which Tulahuen-infected-L929 cells were exposed to different non-toxic concentrations of each compound (0–50 µM) and then after 96 h of incubation the same procedure was conducted as above reported. Controls with untreated and Bz-treated cells are run in parallel. The results were expressed as the percent difference in the reduction between treated and untreated cells.

in vitro [6] = type: cell-based; conditions: mouse; remark: listed apart in the source
Protocol: as §2

[7] = system: intracellular forms of T. cruzi (Tulahuen strain transfected with β-galactosidase); parameters: method as in PMID 24590476; conditions: read-out: EC90 value of Bz against intracellular forms of T. cruzi; cited from earlier work
[8] = P. falciparum W2 clone, 24 h at 37 °C, read-out: EC50

SMILES | EC50 [1, 8] | EC50 [2] | EC50 [3] | 10µM (% of Parasite Lysis) [3] | cytotoxicity (survival rate) in micronuclei assay (HepG2 cells) | SI [1] | Antiplasmodial Activity [1] | CC50 at 24 h (in vitro [4]) | CC50 at 24 h (in vitro [5]) | Trypanocidal Activity (T. cruzi) | SI ([2]; LC50 (cardiac cells)/EC50 (trypomastigotes)) | SI ([3]; LC50 (L929)/EC50 (intracellular forms)) | CC50 at 96 h (in vitro [6]) | EC90 [7] | EC50 [1]
CC(C)c1c(C(=O)Nc2ccccc2)c(-c2ccccc2)c(-c2ccc(F)cc2)n1CC[C@@H](O)C[C@@H](O)CC(=O)O [AVA, atorvastatin, reference compound] | 10.3 ± 1.2 µM | 7.07 ± 1.78 µM | 45.3 ± 3.06 µM | 31.73 ± 5.80% | significant cytotoxic effects upon 1000 µM |  |  |  |  |  |  |  |  |  | 
CC(=O)Nc1ccc(Cl)cc1C(F)(F)C(=O)NCC[C@@H](O)C[C@@H](O)CC(=O)O [Compound 14c, Sodium (3R,5R)-7-(2-(2-acetamido-5-chlorophenyl)-2,2-difluoroacetamide)-3,5-dihydroxyheptanoate salt] | > 112 µM | > 500 µM |  |  |  | Inactive | No | > 450 µM | > 500 µM | No |  |  |  |  | 
O=C(Cn1ccnc1[N+](=O)[O-])NCc1ccccc1 [Benznidazole, benznidazole, reference compound] |  | 13 ± 2 µM | 1.83 ± 0.73 µM | 87.84 ± 7.08% |  |  |  |  | > 1000 µM |  | >77 | 92.4 | 169 ± 27.2 µM | 10 µM | 
CCN(CC)CCCC(C)Nc1ccnc2cc(Cl)ccc12 (stereo not drawn) [Chloroquine, chloroquine, reference compound] |  |  |  |  |  |  |  |  |  |  |  |  |  |  | 0.59 ± 0.03 µM
CC(=O)Nc1ccc(C)cc1C(F)(F)C(=O)NCC[C@@H](O)C[C@@H](O)CC(=O)O [Compound 14b, Sodium (3R,5R)-7-(2-(2-acetamido-5-methylphenyl)-2,2-difluoroacetamide)-3,5-dihydroxyheptanoate salt] | > 118 µM | > 500 µM |  |  |  | Inactive | No | > 472 µM | > 500 µM | No |  |  |  |  | 
CC(=O)Nc1ccc(Br)cc1C(F)(F)C(=O)NCC[C@@H](O)C[C@@H](O)CC(=O)O [Compound 14d, Sodium (3R,5R)-7-(2-(2-acetamido-5-bromophenyl)-2,2-difluoroacetamide)-3,5-dihydroxyheptanoate salt] | > 102 µM | > 500 µM |  |  |  | Inactive | No | > 409 µM | > 500 µM | No |  |  |  |  | 
CC(=O)Nc1ccccc1C(F)(F)C(=O)NCC[C@@H](O)C[C@@H](O)CC(=O)O [Compound 14a, Sodium (3R,5R)-7-(2-(2-acetamido-phenyl)-2,2-difluoroacetamide)-3,5-dihydroxyheptanoate salt] | > 122 µM | > 500 µM |  |  |  | Inactive | No | > 488 µM | > 500 µM | No |  |  |  |  | 
